Measurements as given in publication PMC3227566, “Targeting Acetylcholinesterase: Identification of Chemical Leads by High Throughput Screening, Structure Determination and Molecular Modeling” (PLoS ONE, 2011).
Like-named read-outs stand apart in the source and are kept apart here.

Molecular target: T1, recombinant hAChE (Homo sapiens, UniProt P22303)
T1 construct: made in house
Assay: biochemical
Excerpt: A chemical library consisting of 17 500 substances was screened using the colorimetric Ellman assay and recombinant hAChE. The hydrolysis of acetylthiocholine iodide was monitored and the average slope of the positive controls was set to 100% activity. […] Molecules in Set 1 were selected to represent the chemical space according to a Principal Component Analysis (PCA) of the hits' structural and physicochemical features (see section Chemical space of AChE inhibitors, below).
The screening was performed at the Umeå Small Molecule Screening Facility currently incorporated in the screening platform of the Laboratories for Chemical Biology, Umeå (LCBU). Recombinant hAChE was expressed and purified according to previously described methods, [46]. The enzymatic activity was measured using the Ellman assay adapted to a 96-well format. The final assay volume was 200 µL and all measurements were performed in 0.2 mM 5,5′-Dithiobis(2-nitrobenzoic acid) and 1 mM acethylthiocholine iodide in 0.1 M phosphate buffer pH 8.0. […] Stock solutions were prepared in DMSO and transferred to the assay plate using a Biomek NC robotic system (BeckanCoulter). The enzymatic reaction was monitored for 120 seconds using an Infinite M200 plate-reader (Tekan) at a ligand concentration of 50 µM and temperature of 20°C. Each plate contained 80 samples, 14 positive controls and two negative controls. […] Substances reducing the activity by at least 70% were scored as hits. […] For each inhibitor, the enzymatic activity was determined at eight concentrations selected to produce a dose-response curve that was subsequently analyzed using Prism.

[1] = hits with determined crystal structures, mean ± standard deviation of 2–5 determinations, read-out: IC50

T1 sequence (P22303 32-614): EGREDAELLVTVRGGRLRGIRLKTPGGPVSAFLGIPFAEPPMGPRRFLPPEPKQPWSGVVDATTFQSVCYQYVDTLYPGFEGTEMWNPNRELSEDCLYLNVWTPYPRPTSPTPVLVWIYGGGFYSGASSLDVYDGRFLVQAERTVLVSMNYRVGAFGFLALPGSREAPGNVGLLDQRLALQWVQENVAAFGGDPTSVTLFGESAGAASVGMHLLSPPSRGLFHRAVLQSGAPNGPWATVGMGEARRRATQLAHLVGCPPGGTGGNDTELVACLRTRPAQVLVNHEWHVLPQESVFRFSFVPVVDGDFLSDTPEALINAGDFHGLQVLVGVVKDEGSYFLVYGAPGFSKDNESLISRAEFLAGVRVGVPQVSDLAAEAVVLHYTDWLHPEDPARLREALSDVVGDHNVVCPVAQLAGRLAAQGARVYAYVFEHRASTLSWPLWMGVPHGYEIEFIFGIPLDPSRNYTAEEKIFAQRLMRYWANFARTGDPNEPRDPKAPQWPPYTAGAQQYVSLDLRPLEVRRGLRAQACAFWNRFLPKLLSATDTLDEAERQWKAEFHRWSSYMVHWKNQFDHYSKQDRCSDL

| SMILES | IC50 [1] | IC50 |
| --- | --- | --- |
| COC(=O)CSc1nc(C)c(C)c(C)c1C#N [Compound C5231] | 36000 ± 6300 nM | – |
| CCN1CCCC1CNC(=O)c1cc([N+](=O)[O-])c(N(C)C)cc1OC (centres unmarked) [Compound C5685] | – | 1300 ± 100 nM |
| CCN(CC)CCCNc1c([N+](=O)[O-])c(=O)n(C)c2ccccc12 [Compound C6905] | 2000 ± 100 nM | – |
| CCN(CC)CCCNc1oc(-c2ccc(Cl)cc2)nc1C#N [Compound C7491] | 21400 ± 1700 nM | – |
| COc1ccc(C(=O)NC(=S)Nc2ccc(N3CCN(C)CC3)cc2)cc1[N+](=O)[O-] [Compound C7643] | 540 ± 30 nM | – |
